{"source": "patent US9573884B2", "about": "(priority 2010, dated 2017)", "format_in_all_cases": "cell-based", "key": {"[1]": {"system": "Pseudomonas aeruginosa and Staphylococcus aureas"}, "Staphylococcus aureas": {"system": "Staphylococcus aureas"}, "Pseudomonas aeruginosa": {"system": "Pseudomonas aeruginosa"}}, "note": "“And” between values parts separate entries of the source, which are not always exact repeats. Identical values can stand only once.", "data": [{"smiles": "CC/C=C/CCCCCCCC(=O)NCCN1CC[N+](C)=C1CCCCCCC/C=C/CC", "note": "[C12-13, C12 DETA Quat]", "values": [{"measurement": "Overall Rating", "setting": "[1]", "result": "good"}, {"measurement": "% Kill", "setting": "Staphylococcus aureas", "result": "48.3% and 33.1%"}, {"measurement": "% Kill", "setting": "Pseudomonas aeruginosa", "result": "27.1% and 13.7%"}]}]}
